From publication PMC10709440, “High-throughput ligand profile characterization in novel cell lines expressing seven heterologous insect olfactory receptors for the detection of volatile plant biomarkers” (Scientific Reports, 2023)
Like-named read-outs stand apart in the source and are kept apart here.

Assays:
Drosophila OR10a = molecular target: T1, Drosophila OR10a (Drosophila melanogaster, UniProt Q9VYZ1); assay: Calcium ion fluorescence (GCaMP6) assay, OR10a stable HEK293 cell line; format: cell-based; settings: for OR10a response (VUAA1-normalized) at 1 μM / OR10a response (VUAA1-normalized) at 10 μM / OR10a response (VUAA1-normalized) at 100 μM: OR10a cell line; for OR10a response (VUAA1-normalized) at 1 μM: VOC concentration 1 μM; for OR10a response (VUAA1-normalized) at 10 μM: VOC concentration 10 μM; for OR10a response (VUAA1-normalized) at 100 μM: VOC concentration 100 μM
T1 construct: expressed in transfected cells
T1 sequence (Q9VYZ1 1-406): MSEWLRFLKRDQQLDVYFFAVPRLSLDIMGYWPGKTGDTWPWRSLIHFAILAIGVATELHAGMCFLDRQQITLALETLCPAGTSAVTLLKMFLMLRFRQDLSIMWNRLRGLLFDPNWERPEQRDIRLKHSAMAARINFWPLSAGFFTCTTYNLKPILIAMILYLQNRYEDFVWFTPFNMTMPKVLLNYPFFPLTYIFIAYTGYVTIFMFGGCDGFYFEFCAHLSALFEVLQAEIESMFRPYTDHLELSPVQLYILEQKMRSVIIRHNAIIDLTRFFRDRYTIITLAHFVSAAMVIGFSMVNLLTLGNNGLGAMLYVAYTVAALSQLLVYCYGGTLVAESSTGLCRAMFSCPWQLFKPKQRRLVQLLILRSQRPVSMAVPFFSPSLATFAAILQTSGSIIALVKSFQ
T1 sequence (Q9VNB5 1-486 partner): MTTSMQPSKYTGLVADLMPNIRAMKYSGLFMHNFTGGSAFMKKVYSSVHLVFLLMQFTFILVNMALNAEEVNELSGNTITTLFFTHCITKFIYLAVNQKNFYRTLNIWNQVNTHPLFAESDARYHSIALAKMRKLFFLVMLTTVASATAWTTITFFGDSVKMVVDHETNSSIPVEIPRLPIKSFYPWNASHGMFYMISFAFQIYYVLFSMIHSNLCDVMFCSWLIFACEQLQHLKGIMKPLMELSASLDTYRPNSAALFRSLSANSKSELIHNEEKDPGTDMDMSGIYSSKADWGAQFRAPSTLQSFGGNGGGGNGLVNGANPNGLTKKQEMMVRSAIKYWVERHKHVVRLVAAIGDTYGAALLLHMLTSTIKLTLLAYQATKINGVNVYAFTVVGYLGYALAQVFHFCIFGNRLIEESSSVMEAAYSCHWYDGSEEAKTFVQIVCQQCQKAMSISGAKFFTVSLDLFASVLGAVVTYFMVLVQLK
Outline: (§1)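 Responses are VUAA1-normalized ΔF: each VOC-evoked calcium signal, (FMAX−F0)/F0 over 30 s after injection, divided by the same line's mean 50 µM VUAA1 response. Cells were doxycycline-induced HEK293 with GCaMP6 and the cognate Drosophila OR, in HEPES buffer pH 7.3; ligands tested 0.01–100 μM.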

Drosophila OR49b = molecular target: T2, Drosophila OR49b (Drosophila melanogaster, UniProt Q9V6H2); assay: cell-based; settings: for OR49b response (VUAA1-normalized) at 1 μM / OR49b response (VUAA1-normalized) at 10 μM / OR49b response (VUAA1-normalized) at 100 μM / Average response: OR49b cell line; for Average response: mean of biological replicates; for activation at 1 µM / activation at 10 µM / activation at 100 µM: HEK293
T2 construct: expressed in transfected cells
T2 sequence (Q9V6H2 1-375): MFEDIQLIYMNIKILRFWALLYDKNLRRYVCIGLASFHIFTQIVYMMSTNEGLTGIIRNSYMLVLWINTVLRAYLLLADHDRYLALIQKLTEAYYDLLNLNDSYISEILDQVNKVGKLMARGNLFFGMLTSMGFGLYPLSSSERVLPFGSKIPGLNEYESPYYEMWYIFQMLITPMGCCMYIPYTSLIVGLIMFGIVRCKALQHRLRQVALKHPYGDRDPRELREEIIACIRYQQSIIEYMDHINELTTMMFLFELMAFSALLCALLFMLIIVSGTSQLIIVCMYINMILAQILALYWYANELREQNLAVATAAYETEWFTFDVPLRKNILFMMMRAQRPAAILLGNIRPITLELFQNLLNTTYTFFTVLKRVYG
T2 sequence (Q9VNB5 1-486 partner): T1 sequence (Q9VNB5 1-486 partner)
Outline: as §1

[1] = HEK293, 1 μM VOC, 50 μM VUAA1 = 1, responses not exceeding 0.05 considered 0, read-out: OR10a Average response (VUAA1-normalized)
[2] = HEK293, 10 μM VOC, 50 μM VUAA1 = 1, responses not exceeding 0.05 considered 0, read-out: OR10a Average response (VUAA1-normalized)
[3] = HEK293, 100 μM VOC, 50 μM VUAA1 = 1, responses not exceeding 0.05 considered 0, read-out: OR10a Average response (VUAA1-normalized)
[4] = ligand concentration 1 (unit not given), threshold 0.05, below shown as 0
[5] = ligand concentration 10 (unit not given), threshold 0.05, below shown as 0
[6] = ligand concentration 100 (unit not given), threshold 0.05, below shown as 0
[7] = HEK293, read-out: OR10a response (VUAA1-normalized response), VOC concentration 1 μM
[8] = HEK293, read-out: OR10a response (VUAA1-normalized response), VOC concentration 10 μM
[9] = HEK293, read-out: OR10a response (VUAA1-normalized response), VOC concentration 100 μM
[10] = VOC concentration 1 μM, read-out: OR49b response (VUAA1-normalized response)
[11] = VOC concentration 10 μM, read-out: OR49b response (VUAA1-normalized response)
[12] = VOC concentration 100 μM, read-out: OR49b response (VUAA1-normalized response)
[13] = ligand concentration 1 (unit not given), 0.05 threshold, values below shown as 0
[14] = ligand concentration 10 (unit not given), 0.05 threshold, values below shown as 0
[15] = ligand concentration 100 (unit not given), 0.05 threshold, values below shown as 0

Compound | activation at 1 µM (Drosophila OR10a; [1]) | activation at 10 µM (Drosophila OR10a; [2]) | activation at 100 µM (Drosophila OR10a; [3]) | OR10a response (VUAA1-normalized) at 1 μM (Drosophila OR10a) | OR10a response (VUAA1-normalized) at 10 μM (Drosophila OR10a) | OR10a response (VUAA1-normalized) at 100 μM (Drosophila OR10a) | OR49b response (VUAA1-normalized) at 1 μM (Drosophila OR49b; VOC concentration 1 μM) | OR49b response (VUAA1-normalized) at 10 μM (Drosophila OR49b; VOC concentration 10 μM) | OR49b response (VUAA1-normalized) at 100 μM (Drosophila OR49b; VOC concentration 100 μM) | Average response (Drosophila OR49b; odorant cc. 1 µM) | Average response (Drosophila OR49b; odorant cc. 10 µM) | Average response (Drosophila OR49b; odorant cc. 100 µM) | activation at 1 µM (Drosophila OR10a; [7]) | activation at 10 µM (Drosophila OR10a; [8]) | activation at 100 µM (Drosophila OR10a; [9]) | DF norm AVERAGE OR49b (Drosophila OR49b) | activation at 1 µM (Drosophila OR49b; [10]) | activation at 10 µM (Drosophila OR49b; [11]) | activation at 100 µM (Drosophila OR49b; [12]) | further results
CCCCCOC(C)=O [pentyl acetate] | 11% | 8% | 30% | 0.11 | 0.08 | 0.30 | 0.08 | 0.00 | 0.06 | 0.08 | 0.0108 | 0.06 |  |  |  |  |  |  |  | DF norm AVERAGE OR10a (Drosophila OR10a; [4]): 0.109; DF norm AVERAGE OR10a (Drosophila OR10a; [5]): 0.07718; DF norm AVERAGE OR10a (Drosophila OR10a; [6]): 0.3011; DF norm AVERAGE OR49b (Drosophila OR49b; [4]): 0.07954; DF norm AVERAGE OR49b (Drosophila OR49b; [5]): 0; DF norm AVERAGE OR49b (Drosophila OR49b; [6]): 0.06097
CCCCC(C)O (centres unmarked) [2-hexanol] | 2.54% | 0% | 0% |  |  |  |  |  |  | 0.00 | 0.00 | 0.0161 | 0% | 0% | 0% | 0 | 0% | 0% | 0% | DF norm AVERAGE OR10a (Drosophila OR10a): 0
CC/C=C\CCOC(C)=O [Z-3-hexenyl acetate] |  |  |  | 0.14 | 0.00 | 0.00 | 0.00 | 0.00 | 0.00 |  |  |  |  |  |  |  |  |  |  | 
CCCCCCCCCCC [undecane] | 0% | 0% | 0% | 0.00 | 0.00 | 0.00 | 0.00 | 0.00 | 0.00 | 0.00 | 0.00 | 0.0367 |  |  |  |  |  |  |  | DF norm AVERAGE OR10a (Drosophila OR10a; [13]): 0; DF norm AVERAGE OR10a (Drosophila OR10a; [14]): 0; DF norm AVERAGE OR10a (Drosophila OR10a; [15]): 0; DF norm AVERAGE OR49b (Drosophila OR49b; [13]): 0; DF norm AVERAGE OR49b (Drosophila OR49b; [14]): 0; DF norm AVERAGE OR49b (Drosophila OR49b; [15]): 0
CC/C=C\CCO [Z3-hexenol] |  |  |  |  |  |  |  |  |  | 0.0226 | 0.00 | 0.00 |  |  |  |  |  |  |  | OR10a Average response (VUAA1-normalized) (Drosophila OR10a; 1 μM VOC, 50 μM VUAA1 = 1, responses not exceeding 0.05 considered 0): 0.17; OR10a Average response (VUAA1-normalized) (Drosophila OR10a; 10 μM VOC, 50 μM VUAA1 = 1, responses not exceeding 0.05 considered 0): 0.19; OR10a Average response (VUAA1-normalized) (Drosophila OR10a; 100 μM VOC, 50 μM VUAA1 = 1, responses not exceeding 0.05 considered 0): 0.10; DF norm AVERAGE OR10a (Drosophila OR10a; ligand concentration 1 (unit not given), […]): 0.1736; DF norm AVERAGE OR10a (Drosophila OR10a; ligand concentration 10 (unit not given), […]): 0.1946; DF norm AVERAGE OR10a (Drosophila OR10a; ligand concentration 100 (unit not given), […]): 0.1046; DF norm AVERAGE OR49b (Drosophila OR49b; [13]): 0; DF norm AVERAGE OR49b (Drosophila OR49b; [14]): 0; DF norm AVERAGE OR49b (Drosophila OR49b; [15]): 0
CCCCC(C)=O [2-hexanone] |  |  |  |  |  |  |  |  |  | 0.00 | 0.00 | 0.00 | 10% | 0% | 0% | 0 | 0% | 0% | 0% | activation at 1 µM (Drosophila OR10a; HEK293, read-out: OR10a Average response (VUAA1-normalized), 1 μM VOC, 50 μM VUAA1 = 1, responses not exceeding 0.05 considered 0): 10%; activation at 10 µM (Drosophila OR10a; HEK293, read-out: OR10a Average response (VUAA1-normalized), 10 μM VOC, 50 μM VUAA1 = 1, responses not exceeding 0.05 considered 0): 0%; activation at 100 µM (Drosophila OR10a; HEK293, read-out: OR10a Average response (VUAA1-normalized), 100 μM VOC, 50 μM VUAA1 = 1, responses not exceeding 0.05 considered 0): 0%; DF norm AVERAGE OR10a (Drosophila OR10a; concentration 1, normalized fluorescence change, values below 0.05 threshold given as 0): 0.09901; DF norm AVERAGE OR10a (Drosophila OR10a; concentration 10, normalized fluorescence change, values below 0.05 threshold given as 0): 0; DF norm AVERAGE OR10a (Drosophila OR10a; concentration 100, normalized fluorescence change, values below 0.05 threshold given as 0): 0
CCCC(O)CC (centres unmarked) [3-hexanol] | 16% | 2.57% | 6% |  |  |  |  |  |  | 0.23 | 0.20 | 0.08 | 16% | 0% | 6% |  | 23% | 20% | 8% | 
CC(=O)c1ccccc1 [acetophenone] | 4% | 0% | 24% |  |  |  |  |  |  | 0.00 | 0.00 | 0.13 | 0% | 0% | 24% |  | 0% | 0% | 13% | DF norm AVERAGE OR10a (Drosophila OR10a; [4]): 0; DF norm AVERAGE OR10a (Drosophila OR10a; [5]): 0; DF norm AVERAGE OR10a (Drosophila OR10a; [6]): 0.2367; activation at 1 µM (Drosophila OR49b; 1 μM VOC, 50 μM VUAA1 = 1, read-out: OR49b Average response (VUAA1-normalized)): 0%; activation at 10 µM (Drosophila OR49b; 10 μM VOC, 50 μM VUAA1 = 1, read-out: OR49b Average response (VUAA1-normalized)): 0%; activation at 100 µM (Drosophila OR49b; 100 μM VOC, 50 μM VUAA1 = 1, read-out: OR49b Average response (VUAA1-normalized)): 13%; DF norm AVERAGE OR49b (Drosophila OR49b; [4]): 0; DF norm AVERAGE OR49b (Drosophila OR49b; [5]): 0; DF norm AVERAGE OR49b (Drosophila OR49b; [6]): 0.1277
CCCCCC(C)=O [2-heptanone] | 3% | 4% | 4% |  |  |  |  |  |  | 0.00 | 0.00 | 0.02 | 0% | 0% | 0% | 0 | 0% | 0% | 0% | DF norm AVERAGE OR10a (Drosophila OR10a): 0
